16 compounds from PubChem BioAssay AID248 (DTP/NCI, 2004) can be followed below.

The assay deals with L1210 leukemia ip in BDF1 mice, survival T/C. The assay is described as follows: NCI In Vivo Anticancer Drug Screen. Data for tumor model L1210 Leukemia (intraperitoneal) in B6D2F1 (BDF1) mice. The note with it: endpoint: mean survival time, higher = longer survival. The gist of the method:
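Mice bearing the transplanted tumor received compound or vehicle. Survival of the treated group was divided by that of the vehicle-treated control group to give the ratio.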

[1] abbreviates: dose: 100.0 mg/kg/injection, schedule: Q01DX001 (ip), vehicle: saline.
Where [2] appears, read: dose: 100.0 mg/kg/injection, schedule: Q01DX009 (ip), vehicle: Klucel (hydroxypropylcellulose) (HPC).
Setting [3] is: dose: 200.0 mg/kg/injection, schedule: Q01DX009 (ip), vehicle: Klucel (hydroxypropylcellulose) (HPC).
Setting [4] is: dose: 400.0 mg/kg/injection, schedule: Q01DX009 (ip), vehicle: Klucel (hydroxypropylcellulose) (HPC).

Structures are written as SMILES. “And” between values parts separate entries of the source, which are not always exact repeats. Equal entries are not always repeated. Inconclusive results and toxic doses are left out.

Consider `c1ccc2c(CCNC3=NCCO3)c[nH]c2c1`, for which the T/C by setting is: (dose: 50.0 mg/kg/injection, schedule: Q04DX002 (ip), vehicle: saline with Tween-80) 91 % of control; (dose: 100.0 mg/kg/injection, schedule: Q04DX002 (ip), vehicle: saline with Tween-80) 91 % of control; (dose: 100.0 mg/kg/injection, schedule: Q04DX003 (ip), vehicle: Klucel (hydroxypropylcellulose) (HPC)) 94 % of control; (dose: 200.0 mg/kg/injection, schedule: Q04DX003 (ip), vehicle: Klucel (hydroxypropylcellulose) (HPC)) 108 % of control; (dose: 400.0 mg/kg/injection, schedule: Q04DX003 (ip), vehicle: Klucel (hydroxypropylcellulose) (HPC)) 94 % of control.

Take `C/C(Cl)=C1\CCCC\C1=N\NC(N)=O`: the T/C (dose: 100.0 mg/kg/injection, schedule: Q01DX001 (ip), vehicle: Klucel (hydroxypropylcellulose) (HPC)) was 95 % of control; the T/C (dose: 200.0 mg/kg/injection, schedule: Q01DX001 (ip), vehicle: Klucel (hydroxypropylcellulose) (HPC)) was 98 % of control; the T/C (dose: 400.0 mg/kg/injection, schedule: Q01DX001 (ip), vehicle: Klucel (hydroxypropylcellulose) (HPC)) was 102 % of control.

For the compound `NS(=O)(=O)c1ncnc2nc[nH]c12`, the T/C is, setting by setting: (dose: 5.0 mg/kg/injection, schedule: Q01DX Z (ip), vehicle: methylcellulose (MC)) 108 % of control; (dose: 10.0 mg/kg/injection, schedule: Q01DX Z (ip), vehicle: methylcellulose (MC)) 109 % of control; (dose: 22.0 mg/kg/injection, schedule: Q01DX001 (ip), vehicle: carboxymethylcellulose (CMC)) 109 % of control and 117 % of control; (dose: 22.0 mg/kg/injection, schedule: Q01DX Z (ip), vehicle: carboxymethylcellulose (CMC)) 124 % of control; (dose: 24.75 mg/kg/injection, schedule: Q01DX009 (ip), vehicle: saline) 121 % of control; (dose: 25.0 mg/kg/injection, schedule: Q04DX003 (ip), vehicle: saline) 117 % of control. For the same compound, the T/C is 121 % of control (dose: 30.0 mg/kg/injection, schedule: Q04DX003 (ip), vehicle: saline); 107 % of control and 109 % of control (dose: 33.0 mg/kg/injection, schedule: Q01DX001 (ip), vehicle: carboxymethylcellulose (CMC)); 120 % of control (dose: 33.0 mg/kg/injection, schedule: Q01DX Z (ip), vehicle: carboxymethylcellulose (CMC)); 119 % of control (dose: 37.5 mg/kg/injection, schedule: Q01DX009 (ip), vehicle: saline); 114 % of control and 119 % of control (dose: 50.0 mg/kg/injection, schedule: Q01DX001 (ip), vehicle: carboxymethylcellulose (CMC)); 120 % of control (dose: 50.0 mg/kg/injection, schedule: Q04DX003 (ip), vehicle: saline). The T/C is, setting by setting: (dose: 66.0 mg/kg/injection, schedule: Q04DX003 (ip), vehicle: saline) 114 % of control; (dose: 75.0 mg/kg/injection, schedule: Q01DX001 (ip), vehicle: carboxymethylcellulose (CMC)) 117 % of control; (dose: 75.0 mg/kg/injection, schedule: Q01DX009 (ip), vehicle: saline with Tween-80) 101 % of control; (dose: 75.0 mg/kg/injection, schedule: Q01DX Z (ip), vehicle: carboxymethylcellulose (CMC)) 152 % of control and 159 % of control and 165 % of control; under setting [1], 115 % of control; (dose: 114.0 mg/kg/injection, schedule: Q01DX Z (ip), vehicle: carboxymethylcellulose (CMC)) 93 % of control. The T/C (dose: 200.0 mg/kg/injection, schedule: Q01DX Z (ip), vehicle: methylcellulose (MC)) was 113 % of control.

`Cc1cccc(OCC(O)CN2CCCCC2)c1` (stereo not given): the T/C runs as follows: (dose: 25.0 mg/kg/injection, schedule: Q01DX009 (ip), vehicle: saline) 94 % of control; (dose: 50.0 mg/kg/injection, schedule: Q01DX009 (ip), vehicle: saline) 102 % of control and 105 % of control; (dose: 100.0 mg/kg/injection, schedule: Q01DX009 (ip), vehicle: saline) 120 % of control.

As for `C=CCc1cc(Cl)ccc1OCC(=O)O`, the T/C was 97 % of control (dose: 100.0 mg/kg/injection, schedule: Q01DX009 (ip), vehicle: gum acacia) and 96 % of control (dose: 200.0 mg/kg/injection, schedule: Q01DX009 (ip), vehicle: gum acacia).

Regarding `Cc1cc(Cl)n[nH]c1=O`, the T/C under setting [1] is 105 % of control; the T/C (dose: 200.0 mg/kg/injection, schedule: Q01DX001 (ip), vehicle: saline) was 104 % of control; the T/C (dose: 400.0 mg/kg/injection, schedule: Q01DX001 (ip), vehicle: saline) was 102 % of control.

`O=P1(N(CCF)CCCl)NCCCO1` (stereo not given): the T/C (dose: 10.0 mg/kg/injection, schedule: Q01DX Z (ip), vehicle: other) was 94 % of control and the T/C (dose: 30.0 mg/kg/injection, schedule: Q01DX Z (ip), vehicle: other) is 102 % of control.

As to `CC(c1ccc(-c2ccccc2)cc1)C(Cl)c1ccccc1` (stereo not given), the T/C was 91 % of control (dose: 100.0 mg/kg/injection, schedule: Q01DX001 (ip), vehicle: saline with Tween-80); 91 % of control (dose: 200.0 mg/kg/injection, schedule: Q01DX001 (ip), vehicle: saline with Tween-80); 93 % of control (dose: 400.0 mg/kg/injection, schedule: Q01DX001 (ip), vehicle: saline with Tween-80).

With `CCCCCCCCCCNCCS`, the T/C is, setting by setting: (dose: 4.0 mg/kg/injection, schedule: Q01DX015 (ip), vehicle: carboxymethylcellulose (CMC)) 105 % of control; (dose: 5.0 mg/kg/injection, schedule: Q01DX001 (ip), vehicle: carboxymethylcellulose (CMC)) 109 % of control; (dose: 5.0 mg/kg/injection, schedule: Q04DX003 (ip), vehicle: saline sonified) 101 % of control; (dose: 8.0 mg/kg/injection, schedule: Q01DX015 (ip), vehicle: carboxymethylcellulose (CMC)) 103 % of control; (dose: 10.0 mg/kg/injection, schedule: Q01DX001 (ip), vehicle: carboxymethylcellulose (CMC)) 103 % of control; (dose: 10.0 mg/kg/injection, schedule: Q04DX003 (ip), vehicle: saline sonified) 101 % of control. For the same compound, the T/C by setting is: (dose: 16.0 mg/kg/injection, schedule: Q01DX015 (ip), vehicle: carboxymethylcellulose (CMC)) 101 % of control; (dose: 20.0 mg/kg/injection, schedule: Q04DX003 (ip), vehicle: saline sonified) 101 % of control; (dose: 32.0 mg/kg/injection, schedule: Q01DX015 (ip), vehicle: carboxymethylcellulose (CMC)) 103 % of control.

In the case of `COC(=O)c1c(C)n(C)c2c1c1c(O)c3c(O)c(C)c4c(c32)C(=O)C(C)(O/C=C/C(OC)C(C)C(OC(C)=O)C(C)C(O)C(C)C(O)C(C)/C=C\C=C(C)C(=O)N1)O4` (stereo not given), the T/C was 104 % of control (dose: 50.0 mg/kg/injection, schedule: Q04DX003 (ip), vehicle: water); 100 % of control (dose: 100.0 mg/kg/injection, schedule: Q04DX003 (ip), vehicle: water); 98 % of control (dose: 200.0 mg/kg/injection, schedule: Q04DX003 (ip), vehicle: water); 98 % of control (dose: 400.0 mg/kg/injection, schedule: Q04DX003 (ip), vehicle: water).

On to `CC1OC(n2cnc3c(N)ncnc32)C(O)C1O` (stereo not given), for which the T/C was 104 % of control (dose: 50.0 mg/kg/injection, schedule: Q01DX001 (sc), vehicle: carboxymethylcellulose (CMC)); 90 % of control (dose: 100.0 mg/kg/injection, schedule: Q01DX001 (sc), vehicle: carboxymethylcellulose (CMC)); 93 % of control (dose: 200.0 mg/kg/injection, schedule: Q01DX001 (sc), vehicle: carboxymethylcellulose (CMC)); 106 % of control (dose: 400.0 mg/kg/injection, schedule: Q01DX001 (sc), vehicle: carboxymethylcellulose (CMC)).

As for `CC(=O)Nc1ccc(C(C)(C)c2ccc([N+](=O)[O-])cc2)cc1[N+](=O)[O-]`, the T/C is 98 % of control (dose: 50.0 mg/kg/injection, schedule: Q01DX001 (ip), vehicle: other); 104 % of control (dose: 100.0 mg/kg/injection, schedule: Q01DX001 (ip), vehicle: other); 93 % of control (dose: 400.0 mg/kg/injection, schedule: Q01DX001 (ip), vehicle: other).

In the case of `CCCCCC1SC1CC1SC1CCCCCCCC(=O)N1CCOCC1` (stereo not given), the T/C (dose: 100.0 mg/kg/injection, schedule: Q01DX009 (ip), vehicle: saline with Tween-80) is 98 % of control.

Turning to `Cc1ccc([N+](=O)[O-])cc1NC(=O)Nc1ccc(C(=O)O)cc1`, the T/C is 90 % of control under setting [2], 98 % of control under setting [3] and 104 % of control under setting [4].

In the case of `O=C1N(c2ccccc2)C(c2ccncc2)C1(c1ccccc1)c1ccccc1` (stereo not given), the T/C was 91 % of control (dose: 87.5 mg/kg/injection, schedule: Q04DX003 (ip), vehicle: gum acacia); 91 % of control (dose: 175.0 mg/kg/injection, schedule: Q04DX003 (ip), vehicle: gum acacia); 91 % of control (dose: 350.0 mg/kg/injection, schedule: Q04DX003 (ip), vehicle: gum acacia).

Consider `O=C(O)c1c(Br)c(Br)c(Br)c(Br)c1C(=O)Nc1cccc2c(O)cccc12`, for which the T/C is 110 % of control under setting [2], 107 % of control under setting [3] and 96 % of control under setting [4].
